Experimental data: patent publication US12187758B2 (ROME Therapeutics, Inc., priority 2022, dated 2025)

Experiments:
Format in all cases: cell-based
pTBK1 = pTBK1 level with and without UVB exposure (Example 111); conditions: varying concentrations of compound, alone or after UVB exposure (FIGS. 4B and 4C)
[1] = Mitochondria toxicity assay with PC3 cells, in-cell ELISA COX-1; conditions: 5 days treatment
In short: (§1)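 This in-cell ELISA was run on fixed, permeabilized PC3 cells after 5-day exposure to titrated compound, with cytotoxicity measured on a duplicate plate. Results are reported as categories A (<1.0 μM) to E (>100.0 μM).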

[2] = test system: SDH-A (succinate dehydrogenase-A); experiment: Mitochondria toxicity assay with PC3 cells, in-cell ELISA SDH-A; conditions: 5 days treatment
In short: as §1

7S mitochondria DNA = experiment: Mitochondria DNA assay with PC3 cells; conditions: Homo sapiens, PC-3, 120 h, 5 days, 7S mitochondria DNA level by qPCR relative to 18S or GAPDH
Method: Exemplary compounds were tested for their effect on levels of 7S mitochondria DNA, and the DNA of housekeeping genes 18S and GAPDH. Reduction of 7S mitochondria DNA indicates off-target inhibition of mitochondrial DNA synthesis, which leads to mitochondrial toxicity. Assay procedures and results are described below.
PC3 cells were purchased from ATCC and cultured in F-12 Kaighn's modified medium (Hyclone), 10% heat-inactivated fetal bovine serum (Gibco), 1% Penicillin-Streptomycin (Invitrogen). PC3 cells were treated with a dose titration of a test compound on 6 well plates for 5 days at 37° C., 5% CO2 in a humidified incubator.
Cells were harvested and mitochondria DNA extraction was performed using DNeasy Blood & Tissue Kit (Qiagen) according to the manufacture's instruction.
Mitochondria 7S and housekeeping genes 18S and GAPDH DNA was quantified by multiplex qPCR with the PowerUp™ SYBR™ Green system (Applied Biosystems). Prepare reaction mix consisting of 5 μl of 2× PowerUp™ SYBR™ Green Master Mix, 1 μl of 5 μM Primers for 7S, 18S, or GAPDH, 4 μl of DNA template from DNA extraction above. The primer sequences are below:
qPCR was performed on QuantStudio™ 7 Flex RealTime qPCR system (Applied Biosystems) as set forth below: • a. 50° C. for 2 minutes, then • b. 95° C. for 2 minutes, then • c. 95° C. for 15 seconds, then • d. 60° C. for 60 seconds, • where then steps (c) and (d) were repeated 60 times.
Threshold was calculated by QuantStudio™ 7 Flex Software (ThermoFisher Scientific) using the default settings. Ct values were used to evaluate the relative mitochondria DNA (mtDNA) level using the following formula: ΔCt=Ct (7S target gene)−Ct (18S) or ΔCt=Ct (7S target gene)−Ct (GAPDH). Relative mtDNA level=2^−Δct. Expression fold over DMSO control=2^−Δct (compound treated group)/2^−Δct (DMSO group)
In the table “A” represents values≤0.1 μM; “B” represents values from >0.1 μM to ≤1.0 μM; “C” represents values from >1.0 μM to ≤10.0 μM; “D” represents values from >10.0 μM to ≤100.0 μM; and “E” represents values>100.0 μM.

For `Nc1nc(=O)n([C@H]2C[C@H](O)[C@](CO)(CCl)O2)cc1F` [Compound 14, 4-amino-1-((2R,4S,5R)-5-(chloromethyl)-4-hydroxy-5-(hydroxymethyl)tetrahydrofuran-2-yl)-5-fluoropyrimidin-2(1H)-one], the “level of pTBK1” value (pTBK1) was “varies in a dose-dependent fashion”, the IC50 [1] was greater than 100 µM and the IC50 [2] was greater than 100 µM. For the same compound, the IC50 (7S mitochondria DNA) was no more than 0.1 µM.

With `C[C@@H]1[C@H](n2ccc(N)nc2=O)O[C@](C)(CO)[C@H]1O` [Compound 19, 4-amino-1-((2R,3S,4S,5R)-4-hydroxy-5-(hydroxymethyl)-3,5-dimethyltetrahydrofuran-2-yl)pyrimidin-2(1H)-one] the IC50 [1] was 10 to 50 µM and the IC50 [2] was 10 to 50 µM.

Compound `Nc1ncnc2c1ncn2[C@H]1C[C@H](O)[C@](CO)(CCl)O1` [Compound 15, (2R,3S,5R)-5-(6-amino-9H-purin-9-yl)-2-(chloromethyl)-2-(hydroxymethyl)tetrahydrofuran-3-ol] has an IC50 [1] greater than 100 µM and an IC50 [2] greater than 100 µM.

In the case of `CO[C@@H]1[C@H](n2ccc(N)nc2=O)O[C@@](CO)(CCl)[C@H]1O` [Compound 13, 4-amino-1-((2R,3S,4S,5R)-5-(chloromethyl)-4-hydroxy-5-(hydroxymethyl)-3-methoxytetrahydrofuran-2-yl)pyrimidin-2(1H)-one], the IC50 [1] is reported as greater than 100 µM and the IC50 [2] is reported as greater than 100 µM.

For `Nc1ccn([C@H]2C[C@H](O)[C@](CO)(CCl)O2)c(=O)n1` [Compound 2, 4-amino-1-((2R,4S,5R)-5-(chloromethyl)-4-hydroxy-5-(hydroxymethyl)tetrahydrofuran-2-yl)pyrimidin-2(1H)-one], the “level of pTBK1” value (pTBK1) was “varies in a dose-dependent fashion”, the IC50 [1] was less than 1 µM and the IC50 [2] was greater than 100 µM. It also gave an IC50 (7S mitochondria DNA) of no more than 0.1 µM.

`C[C@@H]1[C@H](n2ccc(N)nc2=O)O[C@@](CO)(CCl)[C@H]1O` [Compound 12, 4-amino-1-((2R,3S,4S,5R)-5-(chloromethyl)-4-hydroxy-5-(hydroxymethyl)-3-methyltetrahydrofuran-2-yl)pyrimidin-2(1H)-one] gave an IC50 [1] greater than 100 µM and an IC50 [2] greater than 100 µM.

With `C#C[C@]1(CO)O[C@@H](n2cnc3c(N)nc(Cl)nc32)C[C@@H]1O` [Compound 25] the IC50 [1] was 50 to 100 µM, the IC50 [2] was greater than 100 µM and the IC50 (7S mitochondria DNA) was greater than 100 µM.

For `[N-]=[N+]=N[C@]1(CO)O[C@@H](n2cc(F)c(N)nc2=O)C[C@@H]1O` [Compound 61, 4-amino-1-((2R,4S,5R)-5-azido-4-hydroxy-5-(hydroxymethyl)tetrahydrofuran-2-yl)-5-fluoropyrimidin-2(1H)-one], the IC50 [1] was greater than 100 µM, the IC50 [2] was greater than 100 µM and the IC50 (7S mitochondria DNA) was greater than 100 µM.

Compound `Nc1nc(=O)n([C@@H]2O[C@@](CO)(CCl)[C@@H](O)[C@@H]2F)cc1F` [Compound 67, 4-amino-1-[(2R,3S,4R,5R)-5-(chloromethyl)-3-fluoro-4-hydroxy-5-(hydroxymethyl)oxolan-2-yl]-5-fluoropyrimidin-2-one] has an IC50 [1] greater than 100 µM, an IC50 [2] greater than 100 µM and an IC50 (7S mitochondria DNA) greater than 100 µM.

`Nc1nc(=O)n([C@H]2C[C@H](O)[C@](CO)(CBr)O2)cc1F` [Compound 88, 4-amino-1-((2R,4S,5R)-5-(bromomethyl)-4-hydroxy-5-(hydroxymethyl)tetrahydrofuran-2-yl)-5-fluoropyrimidin-2(1H)-one] showed an IC50 [1] of 10 to 50 µM, an IC50 [2] greater than 100 µM and an IC50 (7S mitochondria DNA) of no more than 0.1 µM.

For `CC[C@]1(CO)O[C@@H](n2ccc(N)nc2=O)[C@@H](F)[C@@H]1O` [Compound 51, 4-amino-1-((2R,3S,4R,5R)-5-ethyl-3-fluoro-4-hydroxy-5-(hydroxymethyl)tetrahydrofuran-2-yl)pyrimidin-2(1H)-one], the IC50 [1] was 10 to 50 µM and the IC50 [2] was greater than 100 µM.

For `Nc1ccn([C@H]2C[C@H](O)[C@](CO)(C3CC3)O2)c(=O)n1` [Compound 16, 4-amino-1-((2R,4S,5R)-5-cyclopropyl-4-hydroxy-5-(hydroxymethyl)tetrahydrofuran-2-yl)pyrimidin-2(1H)-one], the IC50 [1] was greater than 100 µM and the IC50 [2] was greater than 100 µM.

With `Nc1ccn([C@@H]2O[C@@](CO)(CCl)[C@@H](O)[C@@H]2F)c(=O)n1` [Compound 40, 4-amino-1-((2R,3S,4R,5R)-5-(chloromethyl)-3-fluoro-4-hydroxy-5-(hydroxymethyl)tetrahydrofuran-2-yl)pyrimidin-2(1H)-one] the “level of pTBK1” value (pTBK1) was “varies in a dose-dependent fashion”, the IC50 [1] was greater than 100 µM and the IC50 [2] was greater than 100 µM. The IC50 (7S mitochondria DNA) was greater than 100 µM.

Work on `Nc1nc(=O)n([C@@H]2O[C@@](CO)(CF)[C@@H](O)[C@@H]2O)cc1F` [Compound 72, 4-amino-5-fluoro-1-((2R,3S,4S,5R)-5-(fluoromethyl)-3,4-dihydroxy-5-(hydroxymethyl)tetrahydrofuran-2-yl)pyrimidin-2(1H)-one] yielded an IC50 [1] of 50 to 100 µM and an IC50 [2] greater than 100 µM.

In the case of `CC[C@]1(CO)O[C@@H](n2ccc(N)nc2=O)C[C@@H]1O` [Compound 44, 4-amino-1-((2R,4S,5R)-5-ethyl-4-hydroxy-5-(hydroxymethyl)tetrahydrofuran-2-yl)pyrimidin-2(1H)-one], the “level of pTBK1” value (pTBK1) is reported as “varies in a dose-dependent fashion”, the IC50 [1] is reported as greater than 100 µM and the IC50 [2] is reported as greater than 100 µM. It also gave an IC50 (7S mitochondria DNA) greater than 100 µM.

In the case of `Nc1nc(=O)n([C@@H]2O[C@@](CO)(CF)[C@@H](O)[C@@H]2F)cc1F` [Compound 85, 4-amino-5-fluoro-1-[(2R,3S,4R,5R)-3-fluoro-5-(fluoromethyl)-4-hydroxy-5-(hydroxymethyl)oxolan-2-yl] pyrimidin-2-one], the IC50 [1] is reported as greater than 100 µM and the IC50 [2] is reported as greater than 100 µM.
